Two compounds from patent US8728797B2, “Yeast membrane protein expression system and its application in drug screening” (priority 2001, dated 2014) can be followed below.

The subject of one assay is S. cerevisiae AD1-8u^−. Put plainly: MIC microdilution test, parental strain. It counts as cell-based. The conditions noted are these: Saccharomyces cerevisiae; AD1-8u^− parental strain; 30° C., 48 h, pH 7.0. The protocol: (§1) The MICs of antifungal agents for S. cerevisiae cells were determined by a microdilution test based on the macrodilution reference method of the National Committee for Clinical Laboratory Standards. Cells (10 μl cell suspension, 2×10^5 cells/ml) were inoculated into 90 μl CSM-URA, buffered with 10 mM 2-(N-morpholino)ethanesulfonic acid (MES) and 18 mM N-2-hydroxyethylpiperazine-N′-2-ethanesulfonic acid (HEPES), pH 7.0 and containing 0.67% (w/v) yeast nitrogen base (YNB) in microtitre plate wells. For the uracil-requiring strain AD1-8u^− the medium was supplemented with 0.02% (w/v) uridine. The wells contained, in […], doubling dilutions of antifungal agents (final concentrations: fluconazole, 40-0.078 μg/ml; itraconazole and ketoconazole, 8-0.016 μg/ml). The microtitre plates were incubated at 30° C. for 48 h with shaking and then the growth of cells in individual wells (OD590) was measured with a microplate reader (EL 340, Bio-Tek, Winooski, Vt.). The MIC80 was the lowest concentration of drug that inhibited growth yield by at least 80% compared to a no-drug control.
On the technique in general: In broth dilution the organism is exposed to a series of concentrations in liquid medium.

For assay [1], the system named is AD1-8u^− derivative transformed with C. glabrata PDH1. Put plainly: MIC, PDH1 construct. The conditions noted are these: Nakaseomyces glabratus; PDH1 hyper-expressed. It counts as cell-based, S. cerevisiae. The method, then:
as §1

The subject of another assay is AD-pABC3. The assay is described as follows: MIC in liquid microdilution assay, AD-pABC3 control. The format is cell-based, S. cerevisiae. The note with it: Saccharomyces cerevisiae; AD-pABC3 negative control strain. The method, then:
as §1

The subject of another assay is AD124567 cells. Put plainly: Glucose-dependent rhodamine 6G efflux. It counts as cell-based, S. cerevisiae. The note with it: 40 μM KN20, 5 minute preincubation. The method, then: De-energised cells were pre-loaded with rhodamine 6G, as described in Materials and methods for Example 4. The efflux of rhodamine 6G at 30° C. was followed by direct measurement of fluorescence in cell supernatants following glucose (2 mM) addition to cell suspensions. (A) The kinetics of energy-dependent rhodamine 6G efflux in strains AD1002 (▪) and AD1-8u^− (●). The fluorescence in supernatants of AD1002 cells in the absence of added glucose is also shown (◯). (B) The effect of KN20 concentration on the energy-dependent efflux of rhodamine 6G from AD124567 cells. The indicated concentrations of KN20 were added to AD124567 cells preloaded with rhodamine 6G, the cells were preincubated for 5 minutes at 30° C. and glucose added to commence rhodamine efflux.
A previously described method (Kolaczkowski, M et al. 1996) was adapted to measure rhodamine 6G (Sigma) efflux from whole cells. Yeast cells from exponentially growing cultures in YEPD (OD600 nm=0.5) were collected by centrifugation (3,000×g, 5 min, 20° C.) and washed three times with water. The washed cells were resuspended at a concentration of 0.5×10^6 to 1.0×10^7 cells per ml in HEPES-NaOH (50 mM, pH 7.0) containing 5 mM 2-deoxyglucose and 10 μM rhodamine 6G. […] The rhodamine 6G fluorescence of samples was measured using a Cary Eclipse spectrofluorimeter (Varian Inc, Victora Australia). […]

Assay [2] has as its system AD124567 (Pdr5p-overexpressing). Put plainly: Disk drug susceptibility assay of chemosensitisation to fluconazole. It counts as cell-based, S. cerevisiae. The note with it: 120 μg/ml fluconazole, 47 nanomole peptide on disk. The protocol:
(A) Checkerboard drug susceptibility assay of AD124567 in the presence of the indicated concentrations of fluconazole and KN20. (B) Disk drug susceptibility assay of AD124567. This assay was conducted, as described in Materials and methods for example 4, in the absence or presence of fluconazole (120 μg/ml), and in the presence of (1) KN0 (47 nanomole), (2) KN20 (47 nanomole) or (0) control amounts of DMSO applied to disks
Drug susceptibility was measured using disk assays on CSM-URA plates (containing 1.5% w/v agar). Plates were seeded with yeast cells suspended in top agar (5 ml, 10^5 cells/ml). For the uracil-dependent parental strain, agar was supplemented with 0.02% uridine. Five microliters of drug solution or solvent control were spotted onto sterile Whatman paper disks on the top agar. […]

Values after ≈ are worked out from the molar mass of the structure shown.

The MIC80 is the lowest concentration that inhibits either 80% of growth or 80% of the strains tested, depending on the study. In general, MIC refers to the least concentration at which growth counts as inhibited. Lower therefore signals greater potency.

With `OC(Cn1cncn1)(Cn1cncn1)c1ccc(F)cc1F` [fluconazole], the MIC80 in the assay with S. cerevisiae AD1-8u^− was 0.625 µg/mL (≈ 2.04 µM). Moreover, the MIC in assay [1] is 200 µg/mL (≈ 653 µM); with AD-pABC3, 0.5 µg/mL (≈ 1.63 µM).
Turning to “D-octapeptide NH2-Asn-Trp-Trp-Lys-Val-Arg-Arg-Arg-CONH2 with a single 4-methoxy-2,3,6-trimethylbenzenesulphonyl (Mtr) substituent on one tryptophan sidechain; Pdr5p inhibitor [KN20]”, in the assay on AD124567 cells, the “inhibition of rhodamine 6G efflux” value is 50%. The “chemosensitisation to fluconazole in disk assay” value in assay [2] is reported as “chemosensitisation”.
